# Measured values reported in PMC8507746, “The FHP01 DDX3X Helicase Inhibitor Exerts Potent Anti-Tumor Activity In Vivo in Breast Cancer Pre-Clinical Models” (Cancers, 2021).
# How the values were obtained:
# phospho-β-catenin = experiment: Western blot of phospho-β-catenin in MDA MB 231 cells; format: cell-based, human; settings: MDA MB 231, 1 μM, 16 hrs; vehicle = 1.00
# Experimental: Cells (1 × 10^5) were seeded in 6-well plates. After 24 h, cells were treated for indicated times with DMSO (vehicle) or FHP01 or XAV939 (Merck). After treatments, cells were washed with cold PBS and total protein extracts obtained by adding 80 µL of “RIPA Lysis buffer” (50 mM Tris-HCl pH 8.0, 150 mM NaCl, 0.5% Sodium deoxycholate, 0.1% SDS, 1% NP-40, 2 mM Orthovanadate, 2mM Sodium fluoride, 1mM Dithiothreitol and 1× protease inhibitors). After mechanicals detachment with cell scrapers, total lysates were collected in tubes, vortexed, and incubated for 15 min on ice. Tumors from mice were collected and disrupted by bead homogenization in Lysing Matrix D tubes using a FastPrep-24 5G homogenizer (MP Biomedicals, Solon, OH, USA) filled with “RIPA Lysis buffer” w:v. Next, samples were centrifuged for 10 min at 16,000× g, and supernatants were collected, representing total cell lysates.
# Densitometric analysis of western blots was performed with NIH Image J (National Institutes of Health).
# [1] = system: WNT signaling (TCF/LEF transcriptional activity); experiment: TCF/LEF luciferase reporter assay (WNT1/WNT3A) in MDA MB 231 cells; format: cell-based, human; settings: MDA MB 231, WNT1/WNT3A, 1 μM, 16 hrs
# Experimental: MDA MB 231 cells were seeded at 3 × 10^4 cells/well density in 12-well plates, in triplicate, and transfected with 250 ng of the M50 Super 8× TOPFlash reporter vector (Addgene Plasmid #12456) and 1 μg of expression vectors inducing the WNT pathway (Wnt1-V5, Addgene plasmid #43807, and Wnt3A-V5, Addgene plasmid #43810). Eight hours after transfection, cells were treated with FHP01, XAV939 (Merck, Kenilworth, NJ, USA) or DMSO for indicated times prior to lysis in Passive Lysis Buffer (Promega, Madison, WI, USA). Luciferase activity in cellular lysates was assessed on a Glomax 20/20 luminometer (Promega) using the Luciferase Assay System (Promega). Results were normalized for GFP expression, upon transfection with GFP coding vector (1 μg). Representative results from 3 independent experiments are shown (n = 3). Error bars represent the Standard Error of the Mean. All samples were read at least in triplicate.
structure (smiles),measurement,setting,value
"Oc1nc(-c2ccc(C(F)(F)F)cc2)nc2c1CSCC2 [XAV939, reference compound]",Phospho-β-catenin : ERK2,phospho-β-catenin,2.64
same,TCF/LEF-dependent transcription,[1],efficient attenuation
